In patent US11464770B2, “Anticancer pharmaceutical composition” (NATIONAL CANCER CENTER, priority 2016, dated 2022) one finds IC50 data, which are given here for 19 molecules.

SMILES strings stand for the structures. Read-outs that look alike come from different tables or passages of the source.

The test system of this experiment is lung cancer cell lines (e.g. NCI-H23, NCI-H1229). Briefly: Cell based assay, cell viability (CellTiter-Glo), lung cancer cell lines. The conditions noted are these: Homo sapiens, 72 hours treatment, CellTiter-Glo. On the procedure:
Commercially available bladder cancer, prostate cancer, lung cancer, breast cancer, blood cancer, pancreatic cancer, colorectal cancer, brain cancer, neuroblastoma, melanoma, liver cancer, cervical carcinoma, ovarian cancer, renal cancer, and papilloma cell lines were each treated with trypsin-EDTA and cultured, followed by being seeded in each well of a 96 well plate. After 24 hours of treatment at constant temperature, the respective cells were treated with the candidate compound so that a final concentration became 0 to 2 μM. The treated cells were additionally cultured for 72 hours, and cell viability was measured by using an ATP detection method (CellTiter-Glo® Luminescent Cell Viability Assay, Promega).

[1] abbreviates: A549 cells, read-out: IC50, lung cancer cell line A549.
The mark [2] stands for this setting: DMS 114 cells, read-out: IC50, lung cancer cell line DMS 114.
Where [3] appears, read: NCI-H23 cells, read-out: IC50, lung cancer cell line NCI-H23.
Setting [4] is: NCI-H460 cells, read-out: IC50, lung cancer cell line NCI-H460.
Where [5] appears, read: NCI-H522 cells, read-out: IC50, lung cancer cell line NCI-H522.
Setting [6] is: NCI-H1299 cells, read-out: IC50, lung cancer cell line NCI-H1299.
The mark [7] stands for this setting: NCI-H1437 cells, read-out: IC50, lung cancer cell line NCI-H1437.

By IC50 is commonly meant the concentration that inhibits the measured activity by half. With `CC(=O)c1c(SCc2cccc(C#N)c2)[nH]c2c(Br)ccc(Cl)c2c1=O` [Compound 27, 3-(((3-acetyl-8-bromo-5-chloro-4-oxo-1,4-dihydroquinolin-2-yl)thio)methyl)benzonitrile], the half-maximal inhibitory concentration (IC50) was > 2 µM under setting [1]; > 2 µM under setting [2]; > 2 µM (MRC-5 cells, read-out: IC50); > 2 µM under setting [3]; > 2 µM under setting [4]; > 2 µM under setting [5]. The IC50 under setting [6] was > 2 µM and the IC50 under setting [7] is > 10 µM.

In the case of `CC(=O)c1c([S+]([O-])Cc2cccc(C#N)c2)[nH]c2c(Br)ccc(Cl)c2c1=O` (centres unmarked) [Compound 28, 3-(((3-acetyl-8-bromo-5-chloro-4-oxo-1,4-dihydroquinolin-2-yl)sulfinyl)methyl)benzonitrile], the concentration for half-maximal inhibition (IC50) was > 2 µM under setting [1]; > 2 µM under setting [2]; 0.7 µM (MRC-5 cells, read-out: IC50); 0.75 µM under setting [3]; 1.6 µM under setting [4]; 1.88 µM under setting [5]. Further, the IC50 was 1.11 µM under setting [6] and > 10 µM under setting [7].

As to `CC(=O)c1c(SCc2ccc(F)c(Cl)c2)[nH]c2c(Br)ccc(Cl)c2c1=O` [Compound 30, 3-acetyl-8-bromo-5-chloro-2-((3-chloro-4-fluorobenzyl)thio)quinolin-4(1H)-one], the IC50 by setting is: under setting [1], > 2 µM; under setting [2], > 2 µM; (MRC-5 cells, read-out: IC50) > 2 µM; under setting [3], > 2 µM; under setting [4], > 2 µM; under setting [5], > 2 µM. The concentration for half-maximal inhibition (IC50) is > 2 µM under setting [6] and > 10 µM under setting [7].

For the molecule `CC(=O)c1c(SCc2ccc([N+](=O)[O-])cc2)[nH]c2c(Br)ccc(Cl)c2c1=O` [Compound 32, 3-acetyl-8-bromo-5-chloro-2-((4-nitrobenzyl)thio)quinolin-4(1H)-one], the IC50 is > 2 µM under setting [1]; > 2 µM under setting [2]; > 2 µM (MRC-5 cells, read-out: IC50); > 2 µM under setting [3]; > 2 µM under setting [4]; > 2 µM under setting [5]. The half-inhibitory concentration (IC50) by setting is: under setting [6], > 2 µM; under setting [7], > 10 µM.

In the case of `CSc1c(C(C)=O)c(=O)c2c(Cl)ccc(Br)c2n1S(C)(=O)=O` [Compound 35, 3-acetyl-8-bromo-5-chloro-1-(methylsulfonyl)-2-(methylthio)quinolin-4(1H)-one], the IC50 was > 2 µM under setting [1]; > 2 µM under setting [2]; > 2 µM (MRC-5 cells, read-out: IC50); > 2 µM under setting [3]; > 2 µM under setting [4]; > 2 µM under setting [5]. The IC50 was > 2 µM under setting [6] and > 10 µM under setting [7].

`CC(=O)c1c([S+](C)[O-])n(S(=O)(=O)C(F)(F)F)c2c(Br)ccc(Cl)c2c1=O` (centres unmarked) [Compound 36, 3-acetyl-8-bromo-5-chloro-2-(methylsulfinyl)-1-((trifluoromethyl)sulfonyl)quinolin-4(1H)-one]: the half-maximal inhibitory concentration (IC50) reads like this: under setting [1], > 2 µM; under setting [2], > 2 µM; (MRC-5 cells, read-out: IC50) > 2 µM; under setting [3], > 2 µM; under setting [4], > 2 µM; under setting [5], > 2 µM. Also, the 50% inhibitory concentration (IC50) under setting [6] was > 2 µM and the 50% inhibitory concentration (IC50) under setting [7] was > 10 µM.

Regarding `CSc1c(C(C)=O)c(=O)c2c(Cl)ccc(Br)c2n1S(=O)(=O)c1ccc(Cl)cc1` [Compound 37, 3-acetyl-8-bromo-5-chloro-1-((4-chlorophenyl)sulfonyl)-2-(methylthio)quinolin-4(1H)-one], the IC50 under setting [1] is > 2 µM; the IC50 under setting [2] was > 2 µM; the half-maximal inhibitory concentration (IC50) (MRC-5 cells, read-out: IC50) was > 2 µM; the IC50 under setting [3] is > 2 µM; the IC50 under setting [4] was > 2 µM; the half-inhibitory concentration (IC50) under setting [5] was > 2 µM. The concentration for half-maximal inhibition (IC50) is, setting by setting: under setting [6], > 2 µM; under setting [7], > 10 µM.

For `CSc1c(C(C)=O)c(=O)c2c(Cl)ccc(Br)c2n1S(=O)(=O)c1ccc([N+](=O)[O-])cc1` [Compound 38, 3-acetyl-8-bromo-5-chloro-2-(methylthio)-1-((4-nitrophenyl)sulfonyl)quinolin-4(1H)-one], the IC50 runs as follows: under setting [1], > 2 µM; under setting [2], > 2 µM; (MRC-5 cells, read-out: IC50) > 2 µM; under setting [3], > 2 µM; under setting [4], > 2 µM; under setting [5], > 2 µM. Besides, the half-inhibitory concentration (IC50) by setting is: under setting [6], > 2 µM; under setting [7], > 10 µM.

As for `CCS(=O)(=O)n1c([S+](C)[O-])c(C(C)=O)c(=O)c2c(Cl)ccc(Br)c21` (centres unmarked) [Compound 39, 3-acetyl-8-bromo-5-chloro-1-(ethylsulfonyl)-2-(methylsulfinyl)quinolin-4(1H)-one], the IC50 was > 2 µM under setting [1]; > 2 µM under setting [2]; > 2 µM (MRC-5 cells, read-out: IC50); > 2 µM under setting [3]; > 2 µM under setting [4]; > 2 µM under setting [5]. Further, the IC50 runs as follows: under setting [6], > 2 µM; under setting [7], > 10 µM.

As to `CSc1c(C(C)=O)c(=O)c2c(Cl)ccc(Br)c2n1S(=O)(=O)c1ccc(C(C)(C)C)cc1` [Compound 40, 3-acetyl-8-bromo-1-((4-(tert-butyl)phenyl)sulfonyl)-5-chloro-2-(methylthio)quinolin-4(1H)-one], the IC50 is, setting by setting: under setting [1], > 2 µM; under setting [2], > 2 µM; (MRC-5 cells, read-out: IC50) > 2 µM; under setting [3], > 2 µM; under setting [4], > 2 µM; under setting [5], > 2 µM. The IC50 reads like this: under setting [6], > 2 µM; under setting [7], > 10 µM.

As to `CC(=O)c1c(S(C)(=O)=O)n(S(=O)(=O)c2ccc(C(C)(C)C)cc2)c2c(Br)ccc(Cl)c2c1=O` [Compound 41, 3-acetyl-8-bromo-1-((4-(tert-butyl)phenyl)sulfonyl)-5-chloro-2-(methylsulfonyl)quinolin-4(1H)-one], the half-maximal inhibitory concentration (IC50) was > 2 µM under setting [1]; > 2 µM under setting [2]; > 2 µM (MRC-5 cells, read-out: IC50); > 2 µM under setting [3]; > 2 µM under setting [4]; > 2 µM under setting [5]. The half-inhibitory concentration (IC50) under setting [6] is > 2 µM and the 50% inhibitory concentration (IC50) under setting [7] is > 10 µM.

Take `CC(=O)c1c([S+](C)[O-])n(S(=O)(=O)c2ccc(C(C)(C)C)cc2)c2c(Br)ccc(Cl)c2c1=O` (centres unmarked) [Compound 42, 3-acetyl-8-bromo-1-((4-(tert-butyl)phenyl)sulfonyl)-5-chloro-2-(methylsulfinyl)quinolin-4(1H)-one]: the IC50 is, setting by setting: under setting [1], > 2 µM; under setting [2], > 2 µM; (MRC-5 cells, read-out: IC50) > 2 µM; under setting [3], 1.84 µM; under setting [4], > 2 µM; under setting [5], > 2 µM. In addition, the half-inhibitory concentration (IC50) by setting is: under setting [6], > 2 µM; under setting [7], > 10 µM.

In the case of `CC(=O)c1c(SCc2cc(Cl)ccc2Cl)[nH]c2c(Br)ccc(Cl)c2c1=O` [Compound 43, 3-acetyl-8-bromo-5-chloro-2-((2,5-dichlorobenzyl)thio)quinolin-4(1H)-one], the IC50 is > 2 µM under setting [1]; > 2 µM under setting [2]; > 2 µM (MRC-5 cells, read-out: IC50); > 2 µM under setting [3]; > 2 µM under setting [4]; > 2 µM under setting [5]. The IC50 reads like this: under setting [6], > 2 µM; under setting [7], > 10 µM.

For `CC(=O)c1c(SCc2cc(F)cc(F)c2)[nH]c2c(Br)ccc(Cl)c2c1=O` [Compound 45, 3-acetyl-8-bromo-5-chloro-2-((3,5-difluorobenzyl)thio)quinolin-4(1H)-one], the IC50 is, setting by setting: under setting [1], > 2 µM; under setting [2], > 2 µM; (MRC-5 cells, read-out: IC50) > 2 µM; under setting [3], > 2 µM; under setting [4], > 2 µM; under setting [5], > 2 µM. Also, the concentration for half-maximal inhibition (IC50) is, setting by setting: under setting [6], > 2 µM; under setting [7], > 10 µM.

As for `CC(=O)c1c(SCc2cccc(I)c2)[nH]c2c(Br)ccc(Cl)c2c1=O` [Compound 47, 3-acetyl-8-bromo-5-chloro-2-((3-iodobenzyl)thio)quinolin-4(1H)-one], the 50% inhibitory concentration (IC50) was > 2 µM under setting [1]; > 2 µM under setting [2]; > 2 µM (MRC-5 cells, read-out: IC50); > 2 µM under setting [3]; > 2 µM under setting [4]; > 2 µM under setting [5]. Also, the 50% inhibitory concentration (IC50) was > 2 µM under setting [6] and > 10 µM under setting [7].

As for `CC(=O)c1c([S+]([O-])Cc2cccc(I)c2)[nH]c2c(Br)ccc(Cl)c2c1=O` (centres unmarked) [Compound 48, 3-acetyl-8-bromo-5-chloro-2-((3-iodobenzyl)sulfinyl)quinolin-4(1H)-one], the IC50 under setting [1] is > 2 µM; the 50% inhibitory concentration (IC50) under setting [2] is > 2 µM; the concentration for half-maximal inhibition (IC50) (MRC-5 cells, read-out: IC50) is > 2 µM; the 50% inhibitory concentration (IC50) under setting [3] amounted to 1.51 µM; the concentration for half-maximal inhibition (IC50) under setting [4] is > 2 µM; the IC50 under setting [5] is > 2 µM. The half-inhibitory concentration (IC50) is > 2 µM under setting [6] and > 10 µM under setting [7].

Consider `CC(=O)c1c(SCc2cccc(F)c2)[nH]c2c(Br)ccc(Cl)c2c1=O` [Compound 49, 3-acetyl-8-bromo-5-chloro-2-((3-fluorobenzyl)thio)quinolin-4(1H)-one], for which the half-maximal inhibitory concentration (IC50) under setting [1] was > 2 µM; the half-inhibitory concentration (IC50) under setting [2] is > 2 µM; the IC50 (MRC-5 cells, read-out: IC50) is > 2 µM; the IC50 under setting [3] is > 2 µM; the concentration for half-maximal inhibition (IC50) under setting [4] is > 2 µM; the IC50 under setting [5] was > 2 µM. Besides, the concentration for half-maximal inhibition (IC50) under setting [6] is > 2 µM and the 50% inhibitory concentration (IC50) under setting [7] was > 10 µM.

`CC(=O)c1c(SCc2ccccc2)nc2c(Br)ccc(Cl)c2c1O` [Compound 52, 1-(2-(benzylthio)-8-bromo-5-chloro-4-hydroxyquinolin-3-yl)ethan-1-one]: the half-inhibitory concentration (IC50) is > 2 µM under setting [1]; > 2 µM under setting [2]; > 2 µM (MRC-5 cells, read-out: IC50); > 2 µM under setting [3]; > 2 µM under setting [4]; > 2 µM under setting [5]. Moreover, the concentration for half-maximal inhibition (IC50) was > 2 µM under setting [6] and > 10 µM under setting [7].

For the molecule `CC(=O)c1c([S+]([O-])Cc2ccccc2)nc2c(Br)ccc(Cl)c2c1O` (centres unmarked) [Compound 53, 1-(2-(benzylsulfinyl)-8-bromo-5-chloro-4-hydroxyquinolin-3-yl)ethan-1-one], the IC50 is, setting by setting: under setting [1], > 2 µM; under setting [2], > 2 µM; (MRC-5 cells, read-out: IC50) > 2 µM; under setting [3], > 2 µM; under setting [4], > 2 µM; under setting [5], > 2 µM. Besides, the concentration for half-maximal inhibition (IC50) reads like this: under setting [6], > 2 µM; under setting [7], > 10 µM.
